Measured values as given in patent publication US20040192672A1, “Iodobenzopyran-4-one derivatives having fungicidal activity” (priority 2001, published 2004).

What was measured:
Format in all cases: in vivo
[1] = system: powdery mildew (Blumeria graminis f. sp. tritici) strains resistant to strobilurin derivatives; test: Greenhouse test on pathogenic strains resistant to strobilurin derivatives; details: wheat, 13 days of incubation
Procedure: This example gives an illustration of the biological efficacy of the compounds of formula (I) on pathogenic strains resistant to strobilurin derivatives.
The experiment was performed in a greenhouse.
Resistant strains were isolated and samples taken in 2001 in the north of Germany in the Bremen region in a place treated with pyraclostrobin and with picoxystrobin. These strains are characterized by their resistance to these strobilurin-type compounds. They were then kept in a controlled-environment chamber on wheat plants (Kanzler variety) treated with trifloxystrobin.
The tested compounds were sprayed on the wheat plants using solutions for application diluted in water to a volume equivalent to 250 l/ha. 24 h later, the plants were inoculated with powdery mildew (Blumeria graminis f. sp. tritici).
The extent of the disease was evaluated on each plant after 13 days of incubation.

[2] = system: wheat glume blotch (Septoria tritici); test: Greenhouse preventive synergy test, wheat glume blotch (Septoria tritici)
Procedure: (§1) This example gives an illustration of the synergistic effect obtained using the compounds according to the invention in the form of a mixture with compounds of the strobilurin type, in particular trifloxystrobin, triazole, in particular fluquinconazole. The compounds according to the invention were tested in a greenhouse under preventive conditions.
(§2) The combinations of active ingredients in Table 4 were evaluated.
(§3) The compounds and mixtures tested were sprayed on wheat plants:
(§4) volume for application equivalent to 250 l/ha.
(§5) On the day following the application, the wheat plants were inoculated with powdery mildew (Blumeria graminis f. sp. tritici), brown rust (Puccinia recondita), glume blotches (Septoria tritici and Septoria nodorum) and the barley plants with powdery mildew (Blumeria graminis f. sp. hordei). Once the diseases had developed, the evaluation was made by determining the extent of disease per pot.
(§6) The level of synergy was calculated using the Colby formula in order to calculate the theoretical efficacy and to compare it to the observed efficacy:
(§7) Theoretical efficacy of A+B=efficacy of A (%)+efficacy of B (%)−[efficacy of A (%)×efficacy of B (%)/100]

[3] = system: barley powdery mildew (Blumeria graminis f. sp. hordei); test: Greenhouse preventive synergy test, barley powdery mildew
Procedure: as §1, §2, §3, §4, §5, §6, §7

[4] = system: wheat powdery mildew (Blumeria graminis f. sp. tritici); test: Greenhouse preventive synergy test, wheat powdery mildew
Procedure: as §1, §2, §3, §4, §5, §6, §7

[5] = system: wheat brown rust (Puccinia recondita); test: Greenhouse preventive synergy test, wheat brown rust
Procedure: as §1, §2, §3, §4, §5, §6, §7

[6] = system: wheat powdery mildew (Blumeria graminis); test: Field test of frequency of attack on winter wheat; details: 125 g of active ingredient/ha per application (A and B), same conditions as Table 1
Procedure: (§8) The compounds were tested for their activity against wheat powdery mildew (Blumeda graminis).
(§9) Winter wheat (Appolo variety) was planted in France (department of Marne) in 1 m^2 plots, at the rate of 200 kg/ha (soil: coloured rendzina) at a depth of 3 cm. The compounds of the invention were applied to the wheat plants in two portions: Application A at the 1 cm ear stage and then Application B at the second visible node stage. Each of these applications was carried out by spraying an aqueous solution of the compounds at a dose of 125 g of active ingredient/ha.
(§10) During Application A, the intensity of attack by the fungus Blumeria graminis is estimated at 3% of the total foliar volume.
Under the same conditions, a test of frequency of attack was performed by evaluating the percentage of second leaf (from the ear) attacked by the fungus Blumeria graminis.

[7] = system: wheat powdery mildew (Blumeria graminis); test: Field test of intensity of attack on winter wheat; details: 125 g of active ingredient/ha per application (A and B), 52 days after Application B, winter wheat field plots
Procedure: as §8, §9, §10
The tests of intensity of attack are carried out 52 days after Application B by evaluating the percentage of affected surface area of the second leaves (counted from the ear).

[8] = system: wheat glume blotch (Septoria nodorum); test: Greenhouse preventive synergy test, wheat glume blotch (Septoria nodorum)
Procedure: as §1, §2, §3, §4, §5, §6, §7

Structure (SMILES) | Percentage of leaves affected by powdery mildew ([1]; 31 g/ha) | Percentage of leaves affected by powdery mildew ([1]; 62 g/ha) | Observed efficacy ([3]; Table 6, 12 g/ha) | Observed efficacy ([3]; Table 11, 16 g/ha) | Observed efficacy ([4]; Table 5, 6 g/ha) | Observed efficacy ([4]; Table 10, 16 g/ha) | % of second leaf attacked [6] | % affected surface area per (second) leaf [7] | also measured
CCCc1c(OCC)oc2ccc(I)cc2c1=O [Compound 1, 2-ethoxy-6-iodo-3-propylbenzopyran-4-one] | 0% | 0% | 50% | 50% | 25% | 50% | 28.0% | 0.56% | Observed efficacy ([2]; Table 8, 50 g/ha): 0%; Observed efficacy ([3]; Table 11, 25 g/ha): 75%; Observed efficacy ([4]; Table 10, 6 g/ha): 25%; Observed efficacy ([4]; Table 10, 25 g/ha): 75%; Observed efficacy ([5]; Table 7, 50 g/ha): 0%; Observed efficacy ([8]; Table 9, 50 g/ha): 0%
CCCOc1oc2ccc(I)cc2c(=O)c1CCC [Compound 2, 6-iodo-2-propoxy-3-propylbenzopyran-4-one] |  |  |  |  |  |  |  | 2.53% | 
CCCCOc1oc2ccc(I)cc2c(=O)c1CCC [Compound 3, 2-butoxy-6-iodo-3-propylbenzopyran-4-one] |  |  |  |  |  |  | 54.0% | 2.51% | 
Fc1ccc(Oc2ccnc3cc(Cl)cc(Cl)c23)cc1 [Compound B, quinoxyfen] |  |  |  |  |  |  | 73.3% | 4.91% | 
CON=C(C(=O)OC)c1ccccc1CON=C(C)c1cccc(C(F)(F)F)c1 [Trifloxystrobin] | 100% | 100% |  | 0% |  | 30% |  |  | Percentage of leaves affected by powdery mildew ([1]; 125 g/ha): 100%; Percentage of leaves affected by powdery mildew ([1]; 250 g/ha): 100%; Observed efficacy ([3]; Table 11, 62 g/ha): 0%; Observed efficacy ([4]; Table 10, 31 g/ha): 40%; Observed efficacy ([4]; Table 10, 62 g/ha): 50%
O=c1c2cc(F)ccc2nc(-n2cncn2)n1-c1ccc(Cl)cc1Cl [fluquinconazole] |  |  | 25% |  | 0% |  |  |  | Observed efficacy ([2]; Table 8, 100 g/ha): 60%; Observed efficacy ([3]; Table 6, 25 g/ha): 25%; Observed efficacy ([3]; Table 6, 62 g/ha): 75%; Observed efficacy ([4]; Table 5, 12 g/ha): 0%; Observed efficacy ([4]; Table 5, 31 g/ha): 0%; Observed efficacy ([5]; Table 7, 100 g/ha): 60%; Observed efficacy ([8]; Table 9, 100 g/ha): 75%
